Assay [1] has as its system production of leukotriene B4 (LTB4) in isolated rat polymorphonuclear leukocytes (PMN). In words: inhibition of LTB4 production in isolated rat polymorphonuclear leukocytes (Rat PMN). The assay is classed as cell-based, rat (male Sprague Dawley). The note with it: Leukocyte, 5 min, LTB4 by RIA, A23187 10 μM, 37° C., read-out: Polymorphonuclear Leucocyte (PMN) Activity, Rat PMN IC50. The protocol:
(§1) The assay is conducted as follows:
B. Rat Peritoneal Polymorphonuclear leukocytes (PMN). Male Sprague Dawley rats were purchased from Taconic Farms, Germantown, NY. The animals were maintained on standard pellet diet and water ad lib. Elicited PMN were prepared from peritoneal exudates as follows: 8 ml of 12% sodium caseinate was injected intraperitoneally into male rats. After 18-20 hours, the rats were killed with CO2 and the peritoneal cavities were lavaged with Eagle's MEM (pH 7.7) without NaHCO3 but containing Earle's salts, L-glutamine, and 30 mM HEPES. The PMN were isolated by centrifugation, washed with MEM, filtered through lens paper to remove clumps, and adjusted to a concentration of 1×10^7 cells/ml.
(§2) C. Generation and Radiommumoassay of LTB4. PMNs (0.5 mL; 2.5×10^5 cells) are placed in plastic tubes and incubated (37° C., 2 min) with test compounds at the desired concentration or vehicle control (DMSO, final concentration 0.2%). The synthesis of LTB4 is initiated by the addition of calcium inophore A23187 (final concentration 10 μM) or vehicle on control samples and allowed to proceed for 5 minutes at 37° C. The reactions are then terminated by the addition of cold methanol (0.25 mL) and samples of the entire PMN reaction mixture are removed for radiommunoassay of LTB4.
(§3) Samples (50 μl ) of authentic LTB4 of known concentration in radiommunoassay buffer (RIA) buffer (potassium phosphate 1 mM; disodium EDTA 0.1 mM; Thimerosal 0.025 mM; gelatin 0.1%, pH 7.3) or PMN reaction mixture diluted 1:1 with RIA buffer are added to reaction tubes.
(§4) Thereafter [3H]-LTB4 (10 nCu in 100 μl RIA buffer) and LTB4 antiserum (100 μL of a 1:3000 dilution in RIA buffer) are added and the tubes vortexed. Reactants are allowed to equilibrate by incubation overnight at 4° C. To separate antibody-bound from free LTB4, aliquots (50 μL) of activated charcoal (3% activated charcoal in RIA buffer containing 0.25% Dextran T-70) were added, the tubes vortexed, and allowed to stand at room temperature for 10 minutes prior to centrifugation (1500×g; 10 min; 4° C). The supernatents containing antibody-bound LTB4 are decanted into vials and Aquasol 2 (4 mL) was added. Radioactivity is quantified by liquid scintillation spectrometry. […] The specificity of the antiserium and the sensitivity of the procedure have been described in detail elsewhere. (Rokach, J.; Hayes, E. C.; Griard, Y.; Lombardo. D. L.; Maycock, A. L.; Rosenthal, A. S.; Young, R. N.; Zamboni, R.; Zweerink, H. J. Prostaglandins Leukotrienes and Medicine 1984, 13, 21). The amount of LTB4 produced in test and control approx. 20ng/10^6cells) samples are then calculated. Inhibitory dose response curves are constructed using a four parameter algorithm and from these the IC50 values are determined.

Assay [2] deals with production of leukotriene B4 (LTB4) in isolated human polymorphonuclear leukocytes (PMN). Briefly: inhibition of LTB4 production in isolated human polymorphonuclear leukocytes (Human PMN). The assay is classed as cell-based. The note with it: Leukocyte, 5 min, LTB4 by RIA, A23187 10 μM, 37° C., read-out: Polymorphonuclear Leucocyte (PMN) Activity, Human PMN IC50. The method, then: as §1
A. Preparation of Human PMN. Human blood is obtained by antecubital venepuncture from consenting volunteers who denied having taken medication within the previous 7 days. The blood is immediately added to 10% (v/v) trisodium citrate (0.13 M) or 5% (v/v) sodium heparin (1000 IU/mL). PMNs are isolated from anticoagulated blood by dextran sedimentation and centrifugation through Ficoll Hypaque (specific gravity 1.077), essentially as described by Boyum. (Boyum, A., Scand. J. Clin. Lab. Invest. 1968, 21 (Supp 97), 77). Contaminating erthrocytes are removed by lysis following exposure to ammonium chloride (0.16 M) in Tris buffer (pH 7.65), and the PMNs resuspended at 5×10^5 cells/mL in HEPES (15 mM) buffered Hanks balanced salt solution containing Ca^2+ (1.4 mM) and Mg^2+ (0.7 mM), pH 7.4. Viability is assessed by Trypan blue exclusion and is typically greater than 98%.
as §2, §3
as §4, with “(Rokach, J.; Hayes, E. C.; Griard, Y.; Lombardo. D. L.; Maycock, A. L.; Rosenthal, A. S.; Young, R. N.; Zamboni, R.; Zweerink, H. J. Prostaglandins Leukotrienes and Medicine 1984, 13, 21).” left out

The test system of assay [3] is production of leukotriene B4 (LTB4) in polymorphonuclear leukocytes (PMN). In words: LTB4 inhibition in the above described in vitro test (PMN, species not stated). The assay is classed as cell-based. Particulars: Leukocyte, standard compounds.
Assay [4] deals with leukotriene biosynthesis in human polymorphonuclear leukocytes. Particulars: known inhibitors of leukotriene biosynthesis; cited from earlier work.

The IC50 is the concentration needed to halve the response being measured.

On to `C=CCc1c(O)ccc2c1CCS2` [R4 = --CH2 CH= CH2, R6 = H, 4-(propen-3-yl)-5-hydroxy-2,3-dihydrobenzothiophene], for which the values for the IC50 in assay [1] and in assay [2] were 0.887 µM and 2.26 µM, respectively.
On the same counts, the results for `CCCc1cc2c(cc1O)CCS2` [R4 = H, R6 = --C3 H8, 6-propyl-2,3-dihydro-5-hydroxybenzothiophene] are 0.211 µM and 0.326 µM.
As for `CC(C)(C)c1cc2c(cc1O)CCS2` [R4 = H, R6 = --C4 H10, 6-t-butyl-2,3-dihydro-5-hydroxybenzothiophene], the IC50 in assay [1] is 0.207 µM; in assay [2], 0.142 µM.
In the case of `C=CCc1cc2c(cc1O)CCS2` [R4 = H, R6 = --CH2 CH= CH2, 6-Allyl-5-hydroxy-2,3-dihydrobenzothiophene], the results for the IC50 in assay [1] and in assay [2] were 0.19 µM and 0.319 µM, respectively.
Regarding `Oc1ccc2c(c1)CCS2` [R4 = H, R6 = H, 5-Hydroxy-2,3-dihydrobenzothiophene], in assay [1], the IC50 stood at 5.23 µM.
For the molecule `CC(Cc1ccc(O)c(O)c1)C(C)Cc1ccc(O)c(O)c1` (stereo not shown) [nordihydroguaiacetic acid, nordihydroguaiaretic acid], the IC50 in assay [3] is 0.086 µM. Also, in assay [4], the “activity in human polymorphonuclear leukocytes assay” value is “active in this assay”.
Consider `O=C1CCN(c2ccccc2)N1` [phenidone], for which the 50% inhibitory concentration (IC50) in assay [3] was determined as 9.25 µM. Moreover, the “activity in human polymorphonuclear leukocytes assay” value in assay [4] is given as “active in this assay”.

These data come from patent US4963580A, “Substituted 5-hydroxy-2,3-dihydrobenzothiophenes as inhibitors of leukotriene biosynthesis” (Merck & Co., Inc., priority 1989, dated 1990).
